Test results from article PMC3292874 (Bioconjugate Chemistry, 2011).

Target: PC-PLC (phosphatidylcholine-specific phospholipase C) (Bacillus cereus, UniProt P09598)
Experiment: fluorescence of dequenched Pyro-PtdEtn-BHQ hydrolysis, initial rate
Assay type: biochemical

Chain of PC-PLC (phosphatidylcholine-specific phospholipase C) (P09598 39-283 limits assumed): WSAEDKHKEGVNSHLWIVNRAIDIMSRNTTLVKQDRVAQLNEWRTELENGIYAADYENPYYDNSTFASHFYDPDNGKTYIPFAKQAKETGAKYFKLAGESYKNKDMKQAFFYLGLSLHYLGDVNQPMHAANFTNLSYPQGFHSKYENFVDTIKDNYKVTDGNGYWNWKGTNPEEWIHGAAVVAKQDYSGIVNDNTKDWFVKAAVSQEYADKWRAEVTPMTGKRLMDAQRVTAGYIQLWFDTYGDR

## S=C(S)OC1CC2CC1C1CCCC21 (stereo not shown) [D609]
  IC50: 34 ± 8 µM
